According to article PMC5114273, “Activity of Scorpion Venom-Derived Antifungal Peptides against Planktonic Cells of Candida spp. and Cryptococcus neoformans and Candida albicans Biofilms” (Frontiers in Microbiology, 2016):
Values after ≈ are worked out from the molar mass of the structure shown. Ends that are not written are not given here.

What was measured:
[1] = Stability assays of native and modified peptide; assay type: physicochemical; settings: non-modified versus modified peptide
[2] = tested on: peritoneal macrophages of BALB/c mice; experiment: Cytotoxic test using peritoneal macrophages (LDH release); assay type: cell-based, mouse; settings: 24 h, threshold of acceptable cytotoxicity 50% viability, three independent experiments
Protocol: BALB/c mice were injected with thioglycolate 72 h before peritoneal macrophages were harvested. They were diluted to a concentration of 10^6 cell/mL in RPMI-1640 supplemented with penicillin/streptomycin (100 U/mL, 100 µg/mL), 2 mM L-glutamine, 2 mM non-essential amino acids, 1 mM sodium pyruvate (all reagents from Sigma-Aldrich, St Louis, MO, USA) and 10% fetal bovine serum (FBS), and incubated in 96-well polystyrene microplates at 37°C, 5% CO2 for 24 h. The peptides were added then and cells were further incubated for 24 h as described previously ([Cruz et al., 2005]). Three independent experiments were performed. Cytotoxic activity was evaluated by the release of cytoplasmic enzyme lactate dehydrogenase due to cell lysis using the Cytotox kit (Promega). Briefly, at the end of the incubation period, supernatants were collected, the adhered cells were washed and the toxicity was determined according to the manufacturer’s protocol. The procedures were approved by the Ethics Committee on Animal Research of Institute of Biology (UnBDOC 52657/2011)/University of Brasília (UnB).

[3] = tested on: C. albicans (SC5314); experiment: microbe, parasite or virus in culture; assay type: cell-based, Candida albicans; settings: Candida albicans, SC5314; RPMI-1640 pH 7.0, 2 × 10^3 cells/mL, 37°C, 24 h; complete inhibition of visible growth; at least three experiments; read-out: Minimum inhibitory concentration, C. albicans (SC5314)
Excerpt: (§1) Candida albicans strain SC 5314 (ATCC MYA-2876) was provided by Dr. Joshua Nosanchuk (New York, NY, USA). C. glabrata ATCC 90030, C. parapsilosis ATCC 22019, and C. tropicalis ATCC 750 were provided by Dr. Érika Kioshima (Universidade Estadual de Maringá, Paraná, Brazil). C. neoformans var. grubii strain H99 (serotype A, ATCC 208821) was provided by Dr. John Perfect (Durham, NC, USA). C. neoformans var. neoformans B3501 (serotype D, ATCC 34873) was obtained from ATCC (Manassas, VA, USA). All strains were stored as frozen stocks in 35% glycerol at -80°C. Before each experiment, all Candida spp. strains were grown in Sabouraud’s dextrose broth overnight at 30°C with agitation. C. neoformans strains were grown in the same conditions for 24 h. Fungal cells were collected by centrifugation, washed three times in phosphate buffered saline (PBS) (137 mM NaCl, 2.7 mM KCl, 10 mM Na2HPO4, 2 mM KH2PO4) and inoculated in Roswell Park Memorial Institute (RPMI) 1640 medium supplemented with L-glutamine and buffered to pH 7.0 with 165 mM 3-(N-morpholino)propanesulfonic acid for experiments described below.
(§2) In vitro antifungal assays were performed according to broth microdilution susceptibility test from Clinical and Laboratory Standards Institute (CLSI) M27-A3 guidelines with some modifications. Briefly, twofold serial dilutions of each peptide were prepared in 96-well polystyrene microplates to a final volume of 50 μL. Amphotericin B (Amp B; A2942, Sigma-Aldrich), a known antifungal drug, was used as a positive control. Final concentrations of each peptide and Amp B ranged from 100 to 0.78 μM and 16 to 0.03 μg/mL, respectively, except in tests with C. glabrata and C. parapsilosis, where the final peptide concentration ranged from 400 to 0.78 μM. In each plate, wells were included without peptide as a growth control. Then, 50 μL of the adjusted inoculum in RPMI-1640 medium were added to each well to a final concentration of 2 × 10^3 cells/mL for Candida spp. and 10^4 cells/mL for C. neoformans strains. The plates were incubated at 37°C for 24 and 48 h, respectively. The strains of C. neoformans were also incubated with shaking (200 rpm). […] The experiments were performed at least three times on separate dates.

[4] = tested on: C. neoformans (H99 serotype A); experiment: microbe, parasite or virus in culture; assay type: cell-based, Cryptococcus neoformans var. grubii; settings: Cryptococcus neoformans; RPMI-1640 pH 7.0, 10^4 cells/mL, 37°C, 48 h, shaking 200 rpm; at least three experiments; read-out: Minimum inhibitory concentration, C. neoformans (H99 serotype A)
Excerpt: as §1, §2

[5] = tested on: C. albicans SC5314 biofilm; experiment: Sessile MIC50 of C. albicans SC5314 biofilm (XTT reduction, supplement); assay type: cell-based, Candida albicans
Protocol: Figure 2R. Difference between supernatant volume used for OD 490nm reading (50 and 80µL) using XTT
reduce assay. The experiments were performed four times independently. Statistical analyses: two-way
ANOVA test and Turkey pos-test (**** P ≤ 0,0001; *** P ≤ 0,001; ** P ≤ 0,01; * P ≤ 0,05).
Table 1R. Sessile Minimum Inhibitory Concentration 50% (SMIC50) of C. albicans SC5314
biofilm in response to Amphotericin B serially diluted from 0,01562 to 16 µg/mL.

[6] = tested on: C. neoformans (B3501 serotype D); experiment: microbe, parasite or virus in culture; assay type: cell-based, Cryptococcus neoformans var. neoformans; settings: Cryptococcus neoformans; RPMI-1640 pH 7.0, 10^4 cells/mL, 37°C, 48 h, shaking 200 rpm; at least three experiments; read-out: Minimum inhibitory concentration, C. neoformans (B3501 serotype D)
Excerpt: as §1, §2

[7] = tested on: C. albicans SC 5314 mature biofilm; experiment: C. albicans mature biofilm (XTT reduction); assay type: cell-based, Candida albicans; settings: at 2 μg/mL
Protocol: (§3) The effects of the peptides NDBP-4.23, ToAP1, ToAP2, and NDBP-5.7 on C. albicans biofilms were analyzed according to the protocol described by [Pierce et al. (2008)]. Briefly, C. albicans SC 5314 (10^6 cells/mL) was grown on 96-well polystyrene microplates and 4 h after seeding the peptides or Amp B were added to assess their effects on the first step of biofilm formation, the initial cell adherence. After 24 h of treatment, biofilm formation was measured by the metabolic assay based on the reduction of 2,3-bis-(2-methoxy-4-nitro-5-sulfophenyl)-2H-tetrazolium-5-carboxanilide (XTT). For the purpose of investigating effects of peptides on mature biofilms, the Candida cells were allowed to grow for 24 h prior to addition of the peptides or Amp B and the XTT assay was performed in the same way. All results were analyzed for statistical significance using analysis of variance (ANOVA) followed by Tukey post-test using GraphPad Prism 6 and expressed in terms of biofilm viability as XTT-readings percentage normalized by the control groups. Each compound was tested in triplicate and the experiments were performed at least twice on separate dates.

[8] = tested on: C. tropicalis (ATCC 750); experiment: microbe, parasite or virus in culture; assay type: cell-based, Candida tropicalis; settings: Candida tropicalis, ATCC750; RPMI-1640 pH 7.0, 2 × 10^3 cells/mL, 37°C, 24 h; complete inhibition of visible growth; at least three experiments; read-out: Minimum inhibitory concentration, C. tropicalis (ATCC 750)
Excerpt: as §1, §2

[9] = tested on: C. glabrata (ATCC 90030); experiment: microbe, parasite or virus in culture; assay type: cell-based, Candida glabrata; settings: Nakaseomyces glabratus, ATCC90030; RPMI-1640 pH 7.0, 2 × 10^3 cells/mL, 37°C, 24 h; peptides 400 to 0.78 μM; at least three experiments; read-out: Minimum inhibitory concentration, C. glabrata (ATCC 90030)
Excerpt: as §1, §2

[10] = tested on: C. parapsilosis (ATCC 22019); experiment: microbe, parasite or virus in culture; assay type: cell-based, Candida parapsilosis; settings: Lodderomyces parapsilosis, ATCC22019; RPMI-1640 pH 7.0, 2 × 10^3 cells/mL, 37°C, 24 h; peptides 400 to 0.78 μM; at least three experiments; read-out: Minimum inhibitory concentration, C. parapsilosis (ATCC 22019)
Excerpt: as §1, §2

[11] = tested on: C. albicans SC 5314 biofilm, initial cell adherence; experiment: C. albicans biofilm, initial adherence (XTT reduction); assay type: cell-based, Candida albicans; settings: at 0.25 μg/mL
Protocol: as §3

Row | Compound | Stability compared with the modified peptide [1] | Concentrations showing low cytotoxicity [2] | MIC [3] [µM] | MIC [4] [µM] | SMIC50 ([5]; 4h biofilm, 50 µl supernatant read at OD 490nm) | SMIC50 ([5]; 4h biofilm, 80 µl supernatant read at OD 490nm) | SMIC50 ([5]; 24h biofilm, 50 µl supernatant read at OD 490nm) | SMIC50 ([5]; 24h biofilm, 80 µl supernatant read at OD 490nm) | SMIC50 ([5]; 48h biofilm, 50 µl supernatant read at OD 490nm) | SMIC50 ([5]; 48h biofilm, 80 µl supernatant read at OD 490nm) | MIC [6] [µM] | Reduction in biofilm viability, three-dimensional architecture [7] | MIC [8] [µM] | MIC [9] [µM] | MIC [10] [µM] | Reduction in biofilm viability, initial adherence [11]
1 | FFGTLFKLGSKLIPGVMKLFSKKKER [ToAP2] | lower stability | below 6.25 μM |  |  |  |  |  |  |  |  |  |  |  |  |  | 
2 | C[C@@H]1[C@H](O)[C@@H](C)/C=C/C=C/C=C/C=C/C=C/C=C/C=C/[C@H](O[C@@H]2O[C@H](C)[C@@H](O)[C@H](N)[C@@H]2O)C[C@@H]2O[C@](O)(C[C@@H](O)C[C@@H](O)[C@H](O)CC[C@@H](O)C[C@@H](O)CC(=O)O[C@H]1C)C[C@H](O)[C@H]2C(=O)O [Amp B, Amphotericin B] |  |  | 1.08 (≈ 0.998 µg/mL) | 0.27 (≈ 0.25 µg/mL) | 0,08420 ug/mL | 0,06812 ug/mL | 0,1919 ug/mL | 0,1732 ug/mL | 0,2857 ug/mL | 0,2424 ug/mL | 0.135 (≈ 0.125 µg/mL) | at least 80% | 2.16 (≈ 2 µg/mL) | 1.08 (≈ 0.998 µg/mL) | 2.16 (≈ 2 µg/mL) | at least 80%
